The test system of assay [1] is U87 tumors. The assay can be described thus: Long-term tumor cure by Photobac-PDT. In kind it is in vivo, SCID mice. The following applies: laser light at 787 nm; for CR: 60 days. As to the method: Analysis of anticancer efficacy of Photobac was injected in tumor-bearing mice and treated with the laser light at 787 nm. Tumor cure was monitored for 60 days post-laser treatment. […] Photobac is being developed for the treatment of glioblastoma by Photolitec, LLC (a spin-off of RPCI) has received an ORPHAN DRUG STATUS from FDA.
Long-term tumor cure by Photobac-PDT on treating nude mice (female) bearing U87 tumors (shoulder) at variable drug doses. The tumors were exposed with light (787 nm, 135 J/cm^2, 75 mW/cm^2) at 24 h post injection. Comparative long-term cure of Photobac-PDT treatment in both and female SCID mice bearing U87 tumors (shoulder) under similar treatment parameters (drug dose: 0.75 μmol/kg; light dose: 135 J/cm^2, 75 mW/cm^2.

Assay [2] concerns Colon 26 tumors and U87 tumors. The assay can be described thus: Photobac-PDT vascular shutdown, CD31 staining of tumor sections. The note with it: 787 nm, 135 J/cm2, 75 mW/cm2 at 24 h post-injection; 0.25 μmol/kg (Colon 26) or 0.75 μmol/kg (U87). It is filed as in vivo, BALB/C mice; nude mice.
Assay [3] deals with U87 Glioma xenografts. The assay can be described thus: In vivo PDT and PDT-SDT combination response. The note with it: PDT alone; SCID mice bearing U87 Glioma xenografts.

For `CCCCOC(C)C1=C(C)c2cc3nc(c4c5[nH]c(cc6[nH]c(cc1n2)[C@H](C)[C@H]6CC)c(C)c5C(=O)N(CCCC)C4=O)[C@@H](CCC(=O)OC)[C@@H]3C` (stereo partly drawn) [Photobac, bacteriopurpurinimide], in assay [1] (female SCID mice), the “mice tumor free up to 60 days” value is 4/5 and the CR stood at 80%. In assay [1] (male mice), the “mice tumor free up to 60 days” value is 4/7 and the CR came to 60%. For the same molecule, in assay [2], the “vascular effect of PDT” value was “causes vascular shutdown”.
Take `CCCCCCOC(C)c1c(C)c2cc3nc(c4c5[nH]c(cc6nc(cc1[nH]2)C(C)=C6CC)c(C)c5C(=O)C4)[C@@H](CCC(=O)O)[C@@H]3C` (stereo partly drawn) [HPPH, 2-(1-Hexyloxyethyl)-2-devinyl pyropheophorbide-a]: the complete response in assay [3] is on record as 37%.

The record behind these values is patent publication US20210236840A1, “COMBINED SONODYNAMIC AND PHOTODYNAMIC THERAPY TO TREAT DEEP SEATED CANCER AND OTHER HYPERPOLIFERATIVE DISEASE AND ULTRASOUND AND LIGHT TRIGGERED RELEASE OF NEAR INFRARED PHOTOSENSITIZERS AND CHEMOTHERAPY AGENTS FROM POLYACRLAMIDE BASED NANOPARTICLES” (Photolitec, LLC, priority 2020, published 2021).
